{"source": "patent US8629145B2", "about": "“Therapeutic agent for spinal canal stenosis” (Nippon Shinyaku Co., Ltd., priority 2008, dated 2014)", "system": "model rats suffering from walking disability due to compression of cauda equina", "assay": "walking disability model due to compression of cauda equina (treadmill walking distance)", "type": "in vivo, Wistar strain rats", "conditions": "rat, oral twice daily, suspension 0.2 mg/mL in 0.5 w/v % methyl cellulose, until 13th or 20th day after operation; vs control group p<0.01", "protocol": "Wistar strain rats (male; seven weeks age) (Charles Liver Japan) were subjected to a walk training once daily for continuous three or four days using a treadmill (manufactured by Muromachi Kikai). On the last day of the walk training, the animals were grouped and, on the next day, the walking time was measured and then a sham operation or an operation for compressing the cauda equina mentioned below i) was carried out. On the third, seventh, fourteenth and twenty-first days after the operation, walking time was measured. Based on the walking time measured, a walking distance was calculated.\nAfter measuring the walking time on the third day, the group for which the operation for compressing the cauda equina was carried out was further grouped into a control group and a drug-administered group on the basis of their walking distances on the day when the operation was done and on the third day after the operation. […]\nThe treadmill was operated and walking time of each rat was measured using a timer. […]\nAs to the evaluation, the control group was evaluated by a Welch test against the sham operation group (##: p<0.01). The drug-administered group was evaluated by a t-test or a Welch test against the control group (★★: p<0.01)."}
{"smiles": "CC(C)N(CCCCOCC(=O)NS(C)(=O)=O)c1cnc(-c2ccccc2)c(-c2ccccc2)n1", "note": "[compound A, 2-{4-[N-(5,6-diphenylpyrazin-2-yl)-N-isopropylamino]butyloxy}-N-(methylsulfonyl)acetamide]", "values": [{"measurement": "disability in walking due to compression of cauda equina (walking distance)", "result": "significantly improved"}]}
